Assay results from PubChem BioAssay (NCI).
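Where inhibition never reached the appropriate level, the endpoint shown equals the highest concentration tested. Otherwise, values were interpolated linearly from a five-concentration, 48-hour dose response in 96-well plates. Definition used: TGI = concentration required for complete inhibition of growth.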

What was measured:
Assay in all cases: NCI tumour cell line growth inhibition, 48 h
COLO 205 colon = tested on: COLO 205 colon
SK-MEL-28 melanoma = tested on: SK-MEL-28 melanoma
NCI/ADR-RES ovarian = tested on: NCI/ADR-RES ovarian
MDA-N = tested on: MDA-N
ACHN renal = tested on: ACHN renal
DU-145 prostate = tested on: DU-145 prostate
HS 578T breast = tested on: HS 578T breast
OVCAR-5 ovarian = tested on: OVCAR-5 ovarian
CAKI-1 renal = tested on: CAKI-1 renal
CCRF-CEM leukemia = tested on: CCRF-CEM leukemia
HCC-2998 colon = tested on: HCC-2998 colon
K-562 leukemia = tested on: K-562 leukemia
HT29 colon = tested on: HT29 colon
OVCAR-3 ovarian = tested on: OVCAR-3 ovarian
MCF7 breast = tested on: MCF7 breast
SF-268 CNS = tested on: SF-268 CNS
UO-31 renal = tested on: UO-31 renal
HCT-116 colon = tested on: HCT-116 colon
SNB-75 CNS = tested on: SNB-75 CNS
SF-539 CNS = tested on: SF-539 CNS
UACC-257 melanoma = tested on: UACC-257 melanoma
MDA-MB-231 breast = tested on: MDA-MB-231 breast
HOP-92 NSCLC = tested on: HOP-92 NSCLC
HL-60(TB) leukemia = tested on: HL-60(TB) leukemia
TK-10 renal = tested on: TK-10 renal
NCI-H226 lung = tested on: NCI-H226 lung
RPMI-8226 leukemia = tested on: RPMI-8226 leukemia
A498 renal = tested on: A498 renal
BT-549 breast = tested on: BT-549 breast
SK-MEL-2 melanoma = tested on: SK-MEL-2 melanoma
786-0 renal = tested on: 786-0 renal
NCI-H460 lung = tested on: NCI-H460 lung
EKVX NSCLC = tested on: EKVX NSCLC
IGROV1 ovarian = tested on: IGROV1 ovarian
SN12C renal = tested on: SN12C renal
SF-295 CNS = tested on: SF-295 CNS
NCI-H522 lung = tested on: NCI-H522 lung
HCT-15 colon = tested on: HCT-15 colon
KM12 colon = tested on: KM12 colon
PC-3 prostate = tested on: PC-3 prostate
NCI-H23 lung = tested on: NCI-H23 lung
LOX IMVI melanoma = tested on: LOX IMVI melanoma
T-47D breast = tested on: T-47D breast
MDA-MB-435 = tested on: MDA-MB-435
SK-MEL-5 melanoma = tested on: SK-MEL-5 melanoma
A549 NSCLC = tested on: A549 NSCLC
M14 melanoma = tested on: M14 melanoma
U251 CNS = tested on: U251 CNS
RXF 393 renal = tested on: RXF 393 renal
MOLT-4 leukemia = tested on: MOLT-4 leukemia
UACC-62 melanoma = tested on: UACC-62 melanoma
SNB-19 CNS = tested on: SNB-19 CNS
SK-OV-3 ovarian = tested on: SK-OV-3 ovarian
HOP-62 NSCLC = tested on: HOP-62 NSCLC
SR leukemia = tested on: SR leukemia
SW-620 colon = tested on: SW-620 colon

O=C(CCc1ccc(O)c(O)c1)NCCc1cc(O)cc(OCc2ccccc2)c1
TGI (COLO 205 colon): > 100 µM | TGI (SK-MEL-28 melanoma): > 100 µM | TGI (NCI/ADR-RES ovarian): > 100 µM | TGI (MDA-N): 58.7 µM | TGI (ACHN renal): 46.9 µM | TGI (DU-145 prostate): > 100 µM | TGI (HS 578T breast): > 100 µM | TGI (OVCAR-5 ovarian): > 100 µM | TGI (CAKI-1 renal): > 100 µM | TGI (CCRF-CEM leukemia): 75.9 µM | TGI (HCC-2998 colon): 40.7 µM | TGI (K-562 leukemia): > 100 µM | TGI (HT29 colon): > 100 µM | TGI (OVCAR-3 ovarian): > 100 µM | TGI (MCF7 breast): > 100 µM | TGI (SF-268 CNS): > 100 µM | TGI (UO-31 renal): 71 µM | TGI (HCT-116 colon): > 100 µM | TGI (SNB-75 CNS): > 100 µM | TGI (SF-539 CNS): > 100 µM | TGI (UACC-257 melanoma): > 100 µM | TGI (MDA-MB-231 breast): > 100 µM | TGI (HOP-92 NSCLC): > 100 µM | TGI (HL-60(TB) leukemia): 38.2 µM | TGI (TK-10 renal): > 100 µM | TGI (NCI-H226 lung): > 100 µM | TGI (RPMI-8226 leukemia): > 100 µM | TGI (A498 renal): > 100 µM | TGI (BT-549 breast): 86 µM | TGI (SK-MEL-2 melanoma): > 100 µM | TGI (786-0 renal): > 100 µM | TGI (NCI-H460 lung): 51.7 µM | TGI (EKVX NSCLC): > 100 µM | TGI (IGROV1 ovarian): > 100 µM | TGI (SN12C renal): > 100 µM | TGI (SF-295 CNS): > 100 µM | TGI (NCI-H522 lung): > 100 µM | TGI (HCT-15 colon): 58.4 µM | TGI (KM12 colon): > 100 µM | TGI (PC-3 prostate): > 100 µM | TGI (NCI-H23 lung): 80 µM | TGI (LOX IMVI melanoma): > 100 µM | TGI (T-47D breast): > 100 µM | TGI (MDA-MB-435): > 100 µM | TGI (SK-MEL-5 melanoma): 32.2 µM | TGI (A549 NSCLC): > 100 µM | TGI (M14 melanoma): > 100 µM | TGI (U251 CNS): > 100 µM | TGI (RXF 393 renal): > 100 µM | TGI (MOLT-4 leukemia): > 100 µM | TGI (UACC-62 melanoma): > 100 µM | TGI (SNB-19 CNS): 36.7 µM | TGI (SK-OV-3 ovarian): > 100 µM | TGI (HOP-62 NSCLC): > 100 µM | TGI (SR leukemia): 83.4 µM | TGI (SW-620 colon): > 100 µM
